Tested on: 13D11
Experiment: Inhibition of hydrolysis of 10 by 13D11 (secondary screening)
Assay type: biochemical, mice
Conditions: buffer tried as an alternative to Tris
Protocol: Antibody 13D11 (14.5 μM) was re-screened for activity toward 10 (nominally 500 μM) in the absence and presence of 63 μM (RT-2 hapten)(D/L mixture).
Until this point, 13D11 antibody had been purified by Protein A and DEAE chromatography. To determine whether the activity toward 10 was due to a contaminating enzyme, 13D11 was further purified on a Mono Q column (Pharmacia) by FPLC.

O=S(=O)(O)CCNC1CCCCC1 [CHES]
inhibition of the hydrolysis of 10 by 13D11: found to inhibit

Reference: US6479265B1, “Catalytic antibodies which hydrolyze primary amides and methods for eliciting and use of such antibodies” (Igen International, Inc., priority 1993, dated 2002)
